The numbers were not newly measured in US11077316B2, “Insertion devices and systems for production of emitted light internal to a medium and methods for their use” (Immunolight, LLC, priority 2016, dated 2021), which cites them from elsewhere.

Like-named read-outs stand apart in the source and are kept apart here.

The subject of data set [1] is Zaire Ebola virus (ZEBOV). Particulars: UV light 310 to 360 nm, ex situ in extracted blood.
Data set [2] concerns Venezuelan equine encephalitis virus (VEEV). Particulars: INA exposed to full light conditions.
The conditions of data set [3]: orange juice, high UV exposure of 100 mJ/cm^2.
A further data set concerns Acinetobacter baumannii. To be noted: released nitric oxide, light 100 milliWatts per square centimeter.

As for `Oc1cccc(-c2c3nc(c(-c4cccc(O)c4)c4ccc([nH]4)c(-c4cccc(O)c4)c4nc(c(-c5cccc(O)c5)c5ccc2[nH]5)CC4)C=C3)c1` [Foscan, Tetra (m-hydroxyphenyl) chlorin], the “duration of skin photosensitivity” value (clinical) was “approximately 2 weeks”.

As for `[N-]=[N+]=Nc1cccc2c(I)cccc12` [INA, 1,5-iodonaphthyl-azide], the “infectivity of ZEBOV after INA treatment” value in data set [1] is listed as “completely noninfectious”. Besides, in data set [2], the “inactivation of virulent strain of VEEV” value is listed as “efficiently inactivate”.

On to `CC(=O)[O-].CC(=O)[O-].CCc1c(CC)c2cc3nc(cnc4cc(OCCOCCOCCOC)c(OCCOCCOCCOC)cc4ncc4nc(cc1[n-]2)C(CCCO)=C4C)C(C)=C3CCCO.O.[Lu+3]` [Motexafin lutetium], for which the “duration of skin photosensitivity” value (in vivo) was 24 to 48 h.

Consider `O=C1O[C@H]([C@@H](O)CO)C(O)=C1O` [Vitamin C], for which the “degradation of Vitamin C” value in data set [3] was 17%.

For [Mn(PaPy3)(NO)](ClO4), the “clearing of bacteria from treated areas of plates” value with Acinetobacter baumannii is “effectively cleared the bacteria”.
